From PMC11742250, “Study on the absorption characteristics of euscaphic acid and tiliroside in fruits of Rosa laxa Retz” (PeerJ, 2025)
One block for each compound: values may come before it.

Tests used:
Assay type in all cases: in vitro ADME, human
in vitro = details: human
Protocol: (§1) A precise amount of FRLE reserve solution is diluted to concentrations of 50, 100, and 150 μg/mL, representing the low, medium, and high concentrations of FRLE. Additionally, solutions are prepared containing 0.100 μmoL/mL Verapamil (Ver), 0.099 μmoL/mL Cyclosporine A (CsA), and 0.025 μmoL/mL EGTA at low, medium, and high concentrations for bidirectional transport.
(§2) Caco-2 cells are seeded at a density of 2.5 × 10^5 cells/mL, with 0.5 mL inoculated into each well of a Transwell® 12-well plate. After continuous culturing for 18 days, the cell model is established. Bidirectional transport experiments include AP→BL ([…], absorption transport) and BL→AP ([…], secretion transport).
(§3) Taking absorption transport as an example: 0.5 mL of drug-containing Hank’s Balanced Salt Solution (HBSS) solution is added to the apical (AP) side (supply side), while 1.5 mL of blank solution is added to the basolateral (BL) side (receiving side). At time points 15, 30, 60, 90, 120, 150, and 180 min, 200 µL is drawn from the BL side and simultaneously supplemented with 200 µL of HBSS buffer. The samples are then evaporated in a water bath, re-dissolved in methanol, and centrifuged at 12,000 rpm for 10 min. The supernatant is taken and assayed under the conditions described in “Establishment of the determination method for euscaphic acid and tiliroside”. The effects of different times, concentrations, inhibitors, chelating agents, and pH values on the absorption characteristics of euscaphic acid and tiliroside in FRLE are investigated. The secretion transport procedure is identical to the absorption transport ([Artursson & Karlsson, 1991]).
(§4) The side with the added blank solution is considered the receiving side, and the amount of drug in the receiving side is regarded as its absorption amount (Qr). In the A→B transport test, the amount of drug absorbed by the B-side chamber at any time point is denoted as (QrBi). In the B→A transport test, the amount of drug absorbed by the A-side chamber at any time point is (QrAi). The specific calculations are provided in the following formulas:
(§5) A-B transport: QrBi = 0.2 × (Cr1 + Cr2 + Λ + Cr(i-1)) + 1.5 × Cri
(§6) B-A transport: Qrdi = 0.2 × (Cr1 + Cr2 + Λ + Cr(i-1)) + 0.5 × Cdi
(§7) In the formula, 1.5 represents the volume of the test solution added to the B-side chamber (mL), 0.5 represents the volume of the test solution added to the A-side chamber (mL), and 0.2 is the volume of each sample taken (mL). Cri is the actual concentration in the receiving chamber at the i-th time point (μg/mL). The apparent permeability coefficient Papp (cm/s) is calculated using the following formula ([Lu et al., 2020]):
(§8) Papp=dQ/dt×1/A×C0 dQ/dt represents the amount of drug transported per unit of time (μg/s); A is the surface area of the 12-well Transwell® membrane (1.12 cm^2), and C0 is the initial concentration of the drug in the donor side ([…]) ([Qu et al., 2021]).
(§9) Exhaust ratio (RB-A/A-B)) is calculated using the following formula: RB−A/A−B=Papp(B−A)/Papp(A−B)

Caco-2 cells [1] = assay: in vitro
Protocol: as §1, §2, §3, §4, §5, §6, §7, §8, §9

P-gp = assay: in vitro; details: human
Protocol: as §1, §2, §3, §4, §5, §6, §7, §8, §9

Caco-2 cells [2] = assay: Evaluation of the Caco-2 cell model with fluorescein sodium as marker (Papp, monolayer integrity); details: Caco-2 monolayer, four repeated measurements
Protocol: The evaluation of the Caco-2 cell model primarily involves using fluorescein sodium as a marker. The cells are seeded in a 12-well cell plate (10^5 cells/well) and observed and photographed every two days under a fluorescence inverted microscope. The transepithelial electrical resistance (TEER) is measured using a resistance meter (Millipore Millicell ERS-2; Millipore Sigma, Darmstadt, Germany). […] Markers used for detection mainly include mannitol, inulin, and fluorescein sodium.

[3] = Caco-2, Papp × 10^−4 (cm/s) (A→B)
[4] = Caco-2, Papp × 10^−4 (cm/s) (B→A)
[5] = Caco-2, pH 5, Papp × 10^−4 (cm/s) (A→B)
[6] = Caco-2, pH 5, Papp × 10^−4 (cm/s) (B→A)
[7] = Caco-2, pH 6, Papp × 10^−4 (cm/s) (A→B)
[8] = Caco-2, pH 6, Papp × 10^−4 (cm/s) (B→A)
[9] = Caco-2, pH 8, Papp × 10^−4 (cm/s) (A→B)
[10] = Caco-2, pH 8, Papp × 10^−4 (cm/s) (B→A)
[11] = Caco-2, pH 9, Papp × 10^−4 (cm/s) (A→B)
[12] = Caco-2, pH 9, Papp × 10^−4 (cm/s) (B→A)

- Papp at 180 min (in vitro; Caco-2): 0.042 to 0.808 ×10⁻⁶ cm/s
- Papp A→B at 180 min, 50 μg/mL (in vitro; [3]): 137 ± 2 ×10⁻⁶ cm/s
- Papp A→B at 180 min, 100 μg/mL (in vitro; [3]): 176 ± 13 ×10⁻⁶ cm/s
- Papp A→B at 180 min, 150 μg/mL (in vitro; [3]): 268 ± 9 ×10⁻⁶ cm/s
- Papp B→A at 180 min, 50 μg/mL (in vitro; [4]): 129 ± 2 ×10⁻⁶ cm/s
- Papp B→A at 180 min, 100 μg/mL (in vitro; [4]): 210 ± 4 ×10⁻⁶ cm/s
- Papp B→A at 180 min, 150 μg/mL (in vitro; [4]): 283 ± 3 ×10⁻⁶ cm/s
- efflux ratio at 180 min, 50 μg/mL (in vitro; Caco-2, RB→A/A→B): 0.82 ± 0.04
- efflux ratio at 180 min, 100 μg/mL (in vitro; Caco-2, RB→A/A→B): 0.75 ± 0.07
- efflux ratio at 180 min (in vitro; Caco-2, efflux ratio (RB→A/A→B)): < 1.5
- Papp A→B at 180 min, 50 μg/mL (in vitro; [5]): 380 ± 9 ×10⁻⁶ cm/s
- Papp A→B at 180 min, 100 μg/mL (in vitro; [5]): 409 ± 7 ×10⁻⁶ cm/s
- Papp A→B at 180 min, 150 μg/mL (in vitro; [5]): 649 ± 8 ×10⁻⁶ cm/s
- Papp B→A at 180 min, 50 μg/mL (in vitro; [6]): 448 ± 8 ×10⁻⁶ cm/s
- Papp B→A at 180 min, 100 μg/mL (in vitro; [6]): 536 ± 14 ×10⁻⁶ cm/s
- Papp B→A at 180 min, 150 μg/mL (in vitro; [6]): 718 ± 24 ×10⁻⁶ cm/s
- efflux ratio at 180 min, 50 μg/mL (in vitro; Caco-2, pH 5, RB→A/A→B): 1.18 ± 0.01
- efflux ratio at 180 min, 100 μg/mL (in vitro; Caco-2, pH 5, RB→A/A→B): 1.31 ± 0.02
- efflux ratio at 180 min, 150 μg/mL (in vitro; Caco-2, pH 5, RB→A/A→B): 1.11 ± 0.05
- Papp A→B at 180 min, 50 μg/mL (in vitro; [7]): 473 ± 24 ×10⁻⁶ cm/s
- Papp A→B at 180 min, 100 μg/mL (in vitro; [7]): 468 ± 14 ×10⁻⁶ cm/s
- Papp A→B at 180 min, 150 μg/mL (in vitro; [7]): 618 ± 28 ×10⁻⁶ cm/s
- Papp B→A at 180 min, 50 μg/mL (in vitro; [8]): 568 ± 24 ×10⁻⁶ cm/s
- Papp B→A at 180 min, 100 μg/mL (in vitro; [8]): 614 ± 8 ×10⁻⁶ cm/s
- Papp B→A at 180 min, 150 μg/mL (in vitro; [8]): 808 ± 15 ×10⁻⁶ cm/s
- efflux ratio at 180 min, 50 μg/mL (in vitro; Caco-2, pH 6, RB→A/A→B): 1.2 ± 0.11
- efflux ratio at 180 min (in vitro; Caco-2, pH 6, RB→A/A→B value): ~1
- Papp A→B at 180 min, 50 μg/mL (in vitro; [9]): 86 ± 12 ×10⁻⁶ cm/s
- Papp A→B at 180 min, 100 μg/mL (in vitro; [9]): 92 ± 17 ×10⁻⁶ cm/s
- Papp A→B at 180 min, 150 μg/mL (in vitro; [9]): 96 ± 14 ×10⁻⁶ cm/s
- Papp B→A at 180 min, 50 μg/mL (in vitro; [10]): 83 ± 600 ×10⁻⁶ cm/s
- Papp B→A at 180 min, 100 μg/mL (in vitro; [10]): 88 ± 11 ×10⁻⁶ cm/s
- Papp B→A at 180 min, 150 μg/mL (in vitro; [10]): 93 ± 18 ×10⁻⁶ cm/s
- efflux ratio at 180 min, 50 μg/mL (in vitro; Caco-2, pH 8, RB→A/A→B): 1.03 ± 0.01
- efflux ratio at 180 min, 100 μg/mL (in vitro; Caco-2, pH 8, RB→A/A→B): 1.04 ± 0.03
- Papp A→B at 180 min, 50 μg/mL (in vitro; [11]): 45 ± 4 ×10⁻⁶ cm/s
- Papp A→B at 180 min, 100 μg/mL (in vitro; [11]): 56 ± 24 ×10⁻⁶ cm/s
- Papp A→B at 180 min, 150 μg/mL (in vitro; [11]): 66 ± 26 ×10⁻⁶ cm/s
- Papp B→A at 180 min, 50 μg/mL (in vitro; [12]): 42 ± 15 ×10⁻⁶ cm/s
- Papp B→A at 180 min, 100 μg/mL (in vitro; [12]): 54 ± 18 ×10⁻⁶ cm/s
- Papp B→A at 180 min, 150 μg/mL (in vitro; [12]): 62 ± 21 ×10⁻⁶ cm/s
- efflux ratio at 180 min, 50 μg/mL (in vitro; Caco-2, pH 9, RB→A/A→B): 1.07 ± 0.06
- P-gp substrate status (Caco-2 cells [1]; Caco-2): substrates of P-gp
- absorption category from Papp (Caco-2 cells [1]; Caco-2): good absorption
- transport mechanism (Caco-2 cells [1]; Caco-2): passive diffusion
- Papp (Caco-2 cells [1]; human, Caco-2, 180 min): greater than 10^−6
- RB→A/A→B ratios, range over all conditions (Caco-2 cells [1]; human, Caco-2, 180 min): 0.75-1.31
- RB→A/A→B (Caco-2 cells [1]; human, Caco-2, 180 min, 100 μg/mL, pH 6): 1.31 ± 0.05
- RB→A/A→B (Caco-2 cells [1]; human, Caco-2, 180 min, 100 μg/mL, pH 9): 1.03 ± 0.04
- RB→A/A→B (Caco-2 cells [1]; human, Caco-2, 180 min, 150 μg/mL, pH 6): 1.21 ± 0.15
- RB→A/A→B (Caco-2 cells [1]; human, Caco-2, 180 min, 150 μg/mL, pH 8): 1.03 ± 0.05
- RB→A/A→B (Caco-2 cells [1]; human, Caco-2, 180 min, 150 μg/mL, pH 9): 1.06 ± 0.05
- Papp A→B at 180 min, 50 μg/mL (P-gp; [3]): 142 ± 2 ×10⁻⁶ cm/s
- Papp A→B at 180 min, 100 μg/mL (P-gp; [3]): 180 ± 5 ×10⁻⁶ cm/s
- Papp A→B at 180 min, 150 μg/mL (P-gp; [3]): 261 ± 6 ×10⁻⁶ cm/s
- Papp B→A at 180 min, 50 μg/mL (P-gp; [4]): 156 ± 3 ×10⁻⁶ cm/s
- Papp B→A at 180 min, 100 μg/mL (P-gp; [4]): 226 ± 9 ×10⁻⁶ cm/s
- Papp B→A at 180 min, 150 μg/mL (P-gp; [4]): 276 ± 1 ×10⁻⁶ cm/s
- efflux ratio at 180 min, 50 μg/mL (P-gp; Caco-2, RB→A/A→B): 1.09 ± 0.03
- efflux ratio at 180 min, 100 μg/mL (P-gp; Caco-2, RB→A/A→B): 1.25 ± 0.06
- efflux ratio at 180 min, 150 μg/mL (P-gp; Caco-2, RB→A/A→B): 0.96 ± 0.02
SMILES: O=C(/C=C/c1ccc(O)cc1)OC[C@H]1O[C@@H](Oc2c(-c3ccc(O)cc3)oc3cc(O)cc(O)c3c2=O)[C@H](O)[C@@H](O)[C@@H]1O [Tiliroside]

SMILES: O=C([O-])c1ccccc1-c1c2ccc(=O)cc-2oc2cc([O-])ccc12.[Na+].[Na+] [fluorescein sodium, Fluorescein sodium]
- Papp of fluorescein sodium (Caco-2 cells [2]): 4.06 ± 0.17 × 10^−7 cm/s
